Like-named read-outs stand apart in the source and are kept apart here.
Key:
[1] = cited from earlier work
[2] = at 3 hours; 0.5 mg/mL
Experimental: Approximately 1 mL of bupivacaine solution (0.5 mg/mL in water) or bupivacaine nanoemulsion (0.5 mg/mL in nS100) were added to the donor chamber. At each time point, 70 μL was removed from the receiver chamber and replaced with an equivalent volume of fresh PBS to maintain constant volume. The aliquot from each time point was analyzed by HPLC to determine amount of drug permeating through the membrane over time. The HPLC system consisted of an LC-20AD pump, SIL-20AC HT autosampler, CTO-20A column oven, and SPD-20A UV/vis detector (Shimadzu Scientific Instruments, Inc.). HPLC conditions were: 30 μL injection volume, isocratic elution of mobile phase consisting of 75% methanol and 25% 10 mM sodium phosphate buffer (pH 7.8), flow rate of 1.000 mL/min, column temperature of 40° C., and detection at 263 nm.

[3] = over 7 hours; 1 mg/mL, pH 5-6
Experimental: At each time point, 80 μL was removed from the receiver chamber and replaced with an equivalent volume of fresh PBS to maintain constant volume. The aliquot from each time point was analyzed by HPLC to determine amount of drug permeating through the membrane over time. The HPLC system consisted of an LC-20AD pump, SIL-20AC HT autosampler, CTO-20A column oven, and SPD-20A UV/vis detector (Shimadzu Scientific Instruments, Inc.). HPLC conditions were: 30 μL injection volume, isocratic elution of mobile phase consisting of 50% methanol and 50% phosphoric acid (0.1%), flow rate of 1.000 mL/min, column temperature of 40° C., and detection at 275 nm.

[4] = over 24 hours; 10 mg/mL
Experimental: Sesame EMO nanoemulsion (nS50) was prepared from a combination of sesame EMO and FFA oil. Sesame EMO (0.852 g) and sesame FFA (0.648 g) were weighed into a 50 mL metal beaker and heated to 60° C. A coarse emulsion was prepared by adding 13.5 mL water (pre-heated to 60° C.) to the oil. The mixture was subjected to high-sheer homogenizer for 30 seconds, resulting in a milky coarse emulsion. The coarse emulsion was then transferred to QSonica Q700CA sonicator with ½ inch probe. The emulsion was processed for 2 cycles (5 minutes sonication/2 minutes cooling) at 90% power. […] At each time point, 70 μL was removed from the receiver chamber and replaced with an equivalent volume of fresh PBS to maintain constant volume. The aliquot from each time point was analyzed by HPLC to determine amount of drug permeating through the membrane over time. The HPLC system consisted of an LC-20AD pump, SIL-20AC HT autosampler, CTO-20A column oven, and SPD-20A UV/vis detector (Shimadzu Scientific Instruments, Inc.). HPLC conditions were: 30 μL injection volume, isocratic elution of mobile phase consisting of 60% methanol and 40% phosphoric acid (0.1%), flow rate of 1.000 mL/min, column temperature of 40° C., and detection at 210 nm.

[5] = 10 mg/mL
Experimental: Sesame EMO nanoemulsion (nS50) was prepared from a combination of sesame EMO and FFA oil. Sesame EMO (0.852 g) and sesame FFA (0.648 g) were weighed into a 50 mL metal beaker and heated to 60° C. A coarse emulsion was prepared by adding 13.5 mL water (pre-heated to 60° C.) to the oil. The mixture was subjected to high-sheer homogenizer for 30 seconds, resulting in a milky coarse emulsion. The coarse emulsion was then transferred to QSonica Q700CA sonicator with ½ inch probe. The emulsion was processed for 2 cycles (5 minutes sonication/2 minutes cooling) at 90% power. Approximately 1 mL of trifluoroacetyl tripeptide-2 (Cayman Chemical Company) solution (10 mg/mL in 10% DMSO in water) or trifluoroacetyl tripeptide-2 nanoemulsion (10 mg/mL in 10% DMSO in nS50) were added to the donor chamber. At each time point, 70 μL was removed from the receiver chamber and replaced with an equivalent volume of fresh PBS to maintain constant volume. The aliquot from each time point was analyzed by HPLC to determine amount of drug permeating through the membrane over time.

C=C(C)[C@@H]1CCC(C)=C[C@H]1c1c(O)cc(CCCCC)cc1O [CBD, cannabidiol]
solubility in water [1]: essentially insoluble in water

CCCCN1CCCCC1C(=O)Nc1c(C)cccc1C (stereo not drawn) [free drug control (bupivacaine), bupivacaine]
bupivacaine permeation [2]: undetectable permeation

O=C(O)c1ccccc1O [free drug control (salicylic acid), salicylic acid]
salicylic acid permeation [3]: no salicylic acid permeation

hexapeptide-11 [free peptide control (hexapeptide-11)]
hexapeptide-11 permeation [4]: no peptide permeation

trifluoroacetyl tripeptide-2
trifluoroacetyl tripeptide-2 permeation ([5]; after 24 hours): 1.1 ug/cm^2 | trifluoroacetyl tripeptide-2 permeation ([5]; at 6 hours): no peptide permeation
